Experimental findings from US4016159A, “Acylamino-cephem-carboxylic acids containing an amidino or guanidino group in the molecule” (Hoechst Aktiengesellschaft, priority 1973, dated 1977) are described below.

Converted amounts (≈) assume the structure as drawn. Read-outs that look alike come from different tables or passages of the source.

Assay type in all cases: cell-based
Experiment [1] concerns Proteus mirabilis. The experiment can be described thus: Minimum inhibition concentration (MIC), Table 2. The conditions noted are these: read-out: Minimum inhibition concentration (MIC). The text has this:
Minimum inhibition concentration (MIC) in /ml

In experiment [2] the test system is Streptococcus D. The experiment can be described thus: Minimum inhibition concentration (MIC), Table 4. The conditions noted are these: Streptococcus, read-out: Minimum inhibition concentration (MIC). The text has this:
(§1) Minimum inhibition concentration (MIC) in γ/ml

Experiment [3] has as its system Staphylococcus aureus SG 511. The experiment can be described thus: Minimum inhibition concentration (MIC), Table 5. To be noted: Staphylococcus aureus.
Text: as §1
Germ: Staphylococcus aureus SG 511

Experiment [4] concerns Streptococcus pyogenes A. Description: Minimum inhibition concentration (MIC), Table 3. To be noted: read-out: Minimum inhibition concentration MIC. The text has this:
Minimum inhibition concentration MIC in γ/ml
Germ: Streptococcus pyogenes A

In experiment [5] the test system is Staphylococcus aureus 285. Description: Minimum inhibition concentration (MIC), Table 1. The conditions noted are these: Staphylococcus aureus, 285, Germ: Staphylococcus aureus 285; read-out: Minimum inhibition concentration (MIC).
Text: as §1
Germ: Staphylococcus aureus 285

Setting [6] is: SG511, read-out: Minimum inhibition concentration (MIC).
Setting [7] is: SG511, Germ: Staphylococcus aureus SG 511, read-out: Minimum inhibition concentration (MIC).

Regarding `CC1=C(C(=O)O)N2C(=O)[C@@H](NC(=O)[C@H](N)c3ccccc3)[C@H]2SC1` [Cephalexin, reference compound], the MIC in experiment [1] (Proteus mirabilis) worked out at 25 µg/mL (≈ 72 µM); in experiment [2], 100 µg/mL (≈ 288 µM); in experiment [3] (setting [6]), 1.25 µg/mL (≈ 3.6 µM); in experiment [4] (Streptococcus pyogenes), 0.156 µg/mL (≈ 0.449 µM).
Take `CC(=O)OCC1=C(C(=O)O)N2C(=O)[C@@H](NC(=O)Cc3cccs3)[C@H]2SC1` [Cephalotin-Na, reference compound]: the MIC in experiment [1] (Proteus mirabilis) was found to be 12.5 µg/mL (≈ 31.5 µM); in experiment [2], 78.5 µg/mL (≈ 198 µM); in experiment [3] (setting [6]) it was 0.13 µg/mL (≈ 0.328 µM); in experiment [4] (Streptococcus pyogenes), 0.05 µg/mL (≈ 0.126 µM).
For the compound `Cc1nnc(SCC2=C(C(=O)O)N3C(=O)[C@@H](NC(=O)Cn4cnnn4)[C@H]3SC2)s1` [Cephazolin-Na, reference compound], the MIC was found to be 25 µg/mL (≈ 55 µM) in experiment [1] (Germ: Proteus mirabilis), 0.25 µg/mL (≈ 0.55 µM) in experiment [3] (setting [7]) and 0.03 µg/mL (≈ 0.066 µM) in experiment [4] (Germ: Streptococcus pyogenes A).
As for `N=C(N)c1ccc(CC(=O)NC2C(=O)N3C(C(=O)O)=C(CSc4nncs4)CSC23)cc1` (centres unmarked) [Example 1, 3-[(1,3,4-thiadiazole-2-yl)-thiomethyl]-7-(4-amidino-phenylacetamido)-Δ3-cephem-4-carboxylic acid], the MIC lay in the range of 3.1 to 12.5 µg/mL (≈ 6.32 to 25.5 µM) in experiment [1] (Germ: Proteus mirabilis); 0.156 to 0.391 µg/mL (≈ 0.318 to 0.797 µM) in experiment [5]; 10 to 50 µg/mL (≈ 20.4 to 102 µM) in experiment [2] (Germ: Streptococcus D); 0.0196 to 0.0391 µg/mL (≈ 0.04 to 0.0797 µM) in experiment [3] (setting [7]); 0.000391 to 0.0078 µg/mL (≈ 0.000797 to 0.0159 µM) in experiment [4] (Germ: Streptococcus pyogenes A).
The corresponding values for `N=C(N)c1ccc(CC(=O)NC2C(=O)N3C(C(=O)O)=C(CSc4nncs4)CSC23)s1` (centres unmarked) [Example 3, 3-[(1,3,4-thiadiazole-2-yl)-thiomethyl]-7-(5-amidinothienyl-acetamido)-Δ3-cephem-4-ccarboxylic acid] are 3.1 to 12.5 µg/mL (≈ 6.24 to 25.2 µM), 0.156 to 0.391 µg/mL (≈ 0.314 to 0.787 µM), 10 to 50 µg/mL (≈ 20.1 to 101 µM), 0.0625 to 0.078 µg/mL (≈ 0.126 to 0.157 µM) and 0.008 to 0.0156 µg/mL (≈ 0.0161 to 0.0314 µM).
Turning to `N=C(N)c1ccc(CC(=O)NC2C(=O)N3C(C(=O)O)=C(CSc4nccs4)CSC23)cc1` (centres unmarked) [Example 4, 3-[(thiazole-2-yl)-thiomethyl]-7-(4-amidino-phenylacetamido)-Δ3-cephem-4-carboxylic acid], the MIC in experiment [1] (Germ: Proteus mirabilis) is 25 µg/mL (≈ 51.1 µM); in experiment [5] it was 0.156 to 0.391 µg/mL (≈ 0.319 to 0.799 µM); in experiment [2] (Germ: Streptococcus D) it was 10 to 50 µg/mL (≈ 20.4 to 102 µM); in experiment [3] (setting [7]), 0.0196 to 0.0391 µg/mL (≈ 0.04 to 0.0799 µM); in experiment [4] (Germ: Streptococcus pyogenes A), 0.000391 to 0.0078 µg/mL (≈ 0.000799 to 0.0159 µM).
Regarding `Cc1nnc(SCC2=C(C(=O)O)N3C(=O)C(NC(=O)Cc4ccc(NC(=N)N)cc4)C3SC2)s1` (centres unmarked) [Example 6, 3-[(5-methyl-1,3,4-thiadiazole-2-yl)-thiomethyl]-7-(4-guanidino-phenylacetamido)-Δ3-cephem-4-carboxylic acid], the MIC in experiment [1] (Germ: Proteus mirabilis) is 3.1 to 12.5 µg/mL (≈ 5.97 to 24.1 µM); in experiment [5] it was 0.156 to 0.391 µg/mL (≈ 0.3 to 0.752 µM); in experiment [2] (Germ: Streptococcus D), 10 to 50 µg/mL (≈ 19.2 to 96.2 µM); in experiment [3] (setting [7]), 0.0196 to 0.0391 µg/mL (≈ 0.0377 to 0.0752 µM); in experiment [4] (Germ: Streptococcus pyogenes A) it was 0.008 to 0.0156 µg/mL (≈ 0.0154 to 0.03 µM).
For the compound `N=C(N)Nc1ccc(CC(=O)NC2C(=O)N3C(C(=O)O)=C(CSc4nncs4)CSC23)cc1` (centres unmarked) [Example 9, 3-[(1,3,4-thiadiazole-2-yl)-thiomethyl]-7-(4-guanidino-phenylacetamido)-Δ3-cephem-4-carboxylic acid], the MIC was 25 µg/mL (≈ 49.4 µM) in experiment [1] (Germ: Proteus mirabilis); 0.5 to 1.25 µg/mL (≈ 0.989 to 2.47 µM) in experiment [5]; 10 to 50 µg/mL (≈ 19.8 to 98.9 µM) in experiment [2] (Germ: Streptococcus D); 0.0196 to 0.0391 µg/mL (≈ 0.0388 to 0.0773 µM) in experiment [3] (setting [7]); 0.000391 to 0.0078 µg/mL (≈ 0.000773 to 0.0154 µM) in experiment [4] (Germ: Streptococcus pyogenes A).
In the case of `CCCc1nnc(SCC2=C(C(=O)O)N3C(=O)C(NC(=O)Cc4ccc(C5=NCCN5)cc4)C3SC2)s1` (centres unmarked) [Example 53], the MIC is 25 µg/mL (≈ 44.7 µM) in experiment [1] (Germ: Proteus mirabilis); 0.5 to 1.25 µg/mL (≈ 0.895 to 2.24 µM) in experiment [5]; 0.196 to 6.25 µg/mL (≈ 0.351 to 11.2 µM) in experiment [2] (Germ: Streptococcus D); 0.0625 to 0.078 µg/mL (≈ 0.112 to 0.14 µM) in experiment [3] (setting [7]); 0.000391 to 0.0078 µg/mL (≈ 0.0007 to 0.014 µM) in experiment [4] (Germ: Streptococcus pyogenes A).
Turning to `CCCCc1nnc(SCC2=C(C(=O)O)N3C(=O)C(NC(=O)Cc4ccc(C(=N)N)cc4)C3SC2)s1` (centres unmarked) [Example 55, 3-[(5-n-butyl-1,3,4-thiadiazole-2-yl)-thiomethyl]-7-(4-amidinophenylacetamido)-Δ 3-cephem-4-carboxylic acid], the MIC in experiment [1] (Germ: Proteus mirabilis) is 25 µg/mL (≈ 45.7 µM); in experiment [5], 0.156 to 0.391 µg/mL (≈ 0.285 to 0.715 µM); in experiment [2] (Germ: Streptococcus D), 10 to 50 µg/mL (≈ 18.3 to 91.5 µM); in experiment [3] (setting [7]) it was 0.0625 to 0.078 µg/mL (≈ 0.114 to 0.143 µM); in experiment [4] (Germ: Streptococcus pyogenes A) it was 0.000391 to 0.0078 µg/mL (≈ 0.000715 to 0.0143 µM).
The corresponding values for `CCCc1nnc(SCC2=C(C(=O)O)N3C(=O)C(NC(=O)Cc4ccc(C(=N)N)cc4)C3SC2)s1` (centres unmarked) [Example 58, 3-[(5-n-propyl-1,3,4-thiadiazole-2-yl)-thiomethyl]-7-(4-amidinophenylacetamido)-Δ 3-cephem-4-carboxylic acid] are 3.1 to 12.5 µg/mL (≈ 5.82 to 23.5 µM), 0.156 to 0.391 µg/mL (≈ 0.293 to 0.734 µM), 10 to 50 µg/mL (≈ 18.8 to 93.9 µM), 0.0196 to 0.0391 µg/mL (≈ 0.0368 to 0.0734 µM) and 0.000391 to 0.0078 µg/mL (≈ 0.000734 to 0.0146 µM).
For the compound `Cc1nnc(SCC2=C(C(=O)O)N3C(=O)C(NC(=O)Cc4ccc(C(=N)N)cc4)C3SC2)o1` (centres unmarked) [Example 60, 3-[(5-methyl-1,3,4-oxadiazole-2-yl)-thiomethyl]-7-(4-amidinophenylacetamido)-Δ 3-cephem-4-carboxylic acid], the MIC in experiment [1] (Germ: Proteus mirabilis) lay within 3.1 to 12.5 µg/mL (≈ 6.35 to 25.6 µM); in experiment [5], 0.5 to 1.25 µg/mL (≈ 1.02 to 2.56 µM); in experiment [2] (Germ: Streptococcus D), 10 to 50 µg/mL (≈ 20.5 to 102 µM); in experiment [3] (setting [7]), 0.0625 to 0.078 µg/mL (≈ 0.128 to 0.16 µM); in experiment [4] (Germ: Streptococcus pyogenes A), 0.000391 to 0.0078 µg/mL (≈ 0.0008 to 0.016 µM).
On to `O=C(Cc1ccc(C2=NCCN2)cc1)NC1C(=O)N2C(C(=O)O)=C(CSc3nncs3)CSC12` (centres unmarked) [Example 70, 3-[(1,3,4-thiadiazole-2-yl)-thiomethyl]-7-[4-(imidazoline-2-yl)phenylacetamido]-Δ 3-cephem-4-carboxylic acid], for which the MIC fell in the range of 3.1 to 12.5 µg/mL (≈ 6 to 24.2 µM) in experiment [1] (Germ: Proteus mirabilis); 0.156 to 0.391 µg/mL (≈ 0.302 to 0.757 µM) in experiment [5]; 0.196 to 6.25 µg/mL (≈ 0.379 to 12.1 µM) in experiment [2] (Germ: Streptococcus D); 0.0625 to 0.078 µg/mL (≈ 0.121 to 0.151 µM) in experiment [3] (setting [7]); 0.000391 to 0.0078 µg/mL (≈ 0.000757 to 0.0151 µM) in experiment [4] (Germ: Streptococcus pyogenes A).
In the same order, the values of `O=C(Cc1ccc(C2=NCCN2)cc1)NC1C(=O)N2C(C(=O)O)=C(CSc3nc4ccccc4s3)CSC12` (centres unmarked) [Example 118, 3-[(benzothiazole-2-yl)-thiomethyl]-7-[4-(imidazoline-2-yl)-phenylacetamido]-Δ3-cephem-4-carboxylic acid] are 25 µg/mL (≈ 44.2 µM), 0.156 to 0.391 µg/mL (≈ 0.276 to 0.691 µM), 0.196 to 6.25 µg/mL (≈ 0.346 to 11 µM), 0.0625 to 0.078 µg/mL (≈ 0.11 to 0.138 µM) and 0.000391 to 0.0078 µg/mL (≈ 0.000691 to 0.0138 µM).
In the case of `CCc1nnc(SCC2=C(C(=O)O)N3C(=O)C(NC(=O)Cc4ccc(C5=NCCN5)cc4)C3SC2)s1` (centres unmarked) [Example 120], the MIC is 3.1 to 12.5 µg/mL (≈ 5.69 to 22.9 µM) in experiment [1] (Germ: Proteus mirabilis); 0.156 to 0.391 µg/mL (≈ 0.286 to 0.718 µM) in experiment [5]; 10 to 50 µg/mL (≈ 18.4 to 91.8 µM) in experiment [2] (Germ: Streptococcus D); 0.0196 to 0.0391 µg/mL (≈ 0.036 to 0.0718 µM) in experiment [3] (setting [7]); 0.000391 to 0.0078 µg/mL (≈ 0.000718 to 0.0143 µM) in experiment [4] (Germ: Streptococcus pyogenes A).
In the same order, the values of `CCc1nnc(SCC2=C(C(=O)O)N3C(=O)C(NC(=O)Cc4ccc(C5=NCCCN5)cc4)C3SC2)s1` (centres unmarked) [Example 121, 3-[(5-ethyl-1,3,4-thiadiazole-2-yl)-thiomethyl]-7-[4-(1,4,5,6-tetrahydropyrimide-2-yl)-phenylacetamido]-Δ3-cephem-4-carboxylic acid] are 25 µg/mL (≈ 44.7 µM), 0.156 to 0.391 µg/mL (≈ 0.279 to 0.7 µM), 10 to 50 µg/mL (≈ 17.9 to 89.5 µM), 0.0196 to 0.0391 µg/mL (≈ 0.0351 to 0.07 µM) and 0.000391 to 0.0078 µg/mL (≈ 0.0007 to 0.014 µM).
As for `O=C(Cc1ccc(C2=NCCN2)cc1)NC1C(=O)N2C(C(=O)O)=C(CSc3nnco3)CSC12` (centres unmarked) [Example 124, 3-[(1,3,4-oxadiazole-2-yl)-thiomethyl]-7-[4-(imidazoline-2-yl)-phenylacetamido]-Δ 3-cephem-4-carboxylic acid], the MIC is 3.1 to 12.5 µg/mL (≈ 6.19 to 25 µM) in experiment [1] (Germ: Proteus mirabilis), 0.5 to 1.25 µg/mL (≈ 0.999 to 2.5 µM) in experiment [5], 10 to 50 µg/mL (≈ 20 to 99.9 µM) in experiment [2] (Germ: Streptococcus D) and 0.008 to 0.0156 µg/mL (≈ 0.016 to 0.0312 µM) in experiment [4] (Germ: Streptococcus pyogenes A).
